Experiments:
[1] = system: bone cancer pain in rats (Walker rat breast cancer cells, tibia implant model); assay: Mechanical pain hypersensitivity (paw withdrawal threshold) in rat tibia implant bone cancer pain model; format: in vivo; details: for Paw withdrawal threshold compared with the model group: from 5-7 days after administration, p<0.05
Method: After two SD female rats were intraperitoneally injected with 0.5 mL cancer cells (4×10^4 cells/μL), ascites was collected on the 7th day, and the cells are rinsed 3 times with sterile 0.01 mol/L PBS to adjust to the concentration of 4×10^3 cells/μL for use. 60 SD rats were randomly selected, and after anesthesia, a small 1 cm incision was made in the upper tibial skin. A 10 mL syringe needle was used to puncture and perforate, then a 10 μL syringe was inserted into the bone marrow cavity, and 3 μL cell suspension containing […] Walker rat breast cancer cells was slowly injected. The pinhole was sealed with bone wax, and the skin was sutured. After surgery, the rats were placed on a 37° C. hot plate for rewarming. After recovery, rats were returned to the cage for further breeding, to obtain the model group. In addition, 8 SD rats were randomly selected, and an equal volume of PBS solution was injected into the marrow cavity of the left upper tibia. The rest of the operations were the same as the model group, to obtain the sham operation group. Mechanical pain hypersensitivity: continuous pain measurement was performed from the 10th day after the operation, the contact stimulator's fine fibers were allowed to touch with the middle of the affected side of the rat's plantar, and the force can be increased up to 80 g within 5 seconds. The rat's paw withdrawal respond was observed, and the paw withdrawal threshold was recorded. Each animal was tested 5 times, with an interval of 5 min between two tests. […] The rats that had been successfully modeled were randomly divided into groups, eight rats for each group, that included high-dose chlorogenic acid group (80 mg/kg), middle-dose chlorogenic acid group (40 mg/kg), low-dose chlorogenic acid group (20 mg/kg), model negative group (N.S normal saline), and sham operation group (N.S normal saline). The rats were intraperitoneally injected with drugs for 15 days in a volume of 0.2 mL/10 g, once a day; the model-negative group and the sham operation group were given the same volume of normal saline. From the second day after administration, the mechanical pain hypersensitivity and radiation thermal pain were investigated before each administration, and the paw withdrawal threshold and the pain threshold were recorded.

[2] = system: IL-6; assay: Serum IL-6 content by ELISA in bone cancer pain rats; format: in vivo, rat; details: for Cytokines IL-6 content in serum: after 15 days of administration; for Serum level of IL-6 compared with the model-negative group: after 15 days
Method: 60 SD rats were randomly selected, and after anesthesia, a small 1 cm incision was made in the upper tibial skin. A 10 mL syringe needle was used to puncture and perforate, then a 10 μL syringe was inserted into the bone marrow cavity, and 3 μL cell suspension containing 3×10^3 Walker rat breast cancer cells was slowly injected. The pinhole was sealed with bone wax, and the skin was sutured. After surgery, the rats were placed on a 37° C. hot plate for rewarming. After recovery, rats were returned to the cage for further breeding, to obtain the model group. In addition, 8 SD rats were randomly selected, and an equal volume of PBS solution was injected into the marrow cavity of the left upper tibia. The rest of the operations were the same as the model group, to obtain the sham operation group. The rats that had been successfully modeled were randomly divided into groups, eight rats for each group, that included high-dose chlorogenic acid group (80 mg/kg), middle-dose chlorogenic acid group (40 mg/kg), low-dose chlorogenic acid group (20 mg/kg), model negative group (N.S normal saline), and sham operation group (N.S normal saline). The rats were intraperitoneally injected with drugs for 15 days in a volume of 0.2 mL/10 g, once a day; the model-negative group and the sham operation group were given the same volume of normal saline. After the last administration, blood was collected from the eyeballs of the rats, and the animals in each group were sacrificed by neck removal. The blood samples were allowed to stand at room temperature for 20 minutes and then centrifuged. The supernatant was collected and the contents of TNF-α, IL-1β, and IL-6 in the peripheral blood serum of the […] were determined by ELISA.

O=C(/C=C/c1ccc(O)c(O)c1)O[C@@H]1C[C@](O)(C(=O)O)C[C@@H](O)[C@H]1O [Chlorogenic acid]
Paw withdraw threshold ([1]; 20 mg/kg ip once a day, 2 d): 16.46 g | Paw withdraw threshold ([1]; 20 mg/kg ip once a day, 3 d): 22.32 g | Paw withdraw threshold ([1]; 20 mg/kg ip once a day, 4 d): 26.14 g | Paw withdraw threshold ([1]; 20 mg/kg ip once a day, 5 d): 24.86 g | Paw withdraw threshold ([1]; 20 mg/kg ip once a day, 6 d): 31.21 g | Paw withdraw threshold ([1]; 20 mg/kg ip once a day, 7 d): 37.06 g | Paw withdraw threshold ([1]; 20 mg/kg ip once a day, 8 d): 35.11 g | Paw withdraw threshold ([1]; 20 mg/kg ip once a day, 9 d): 38.48 g | Paw withdraw threshold ([1]; 20 mg/kg ip once a day, 10 d): 37.23 g | Paw withdraw threshold ([1]; 20 mg/kg ip once a day, 11 d): 34.22 g | Paw withdraw threshold ([1]; 20 mg/kg ip once a day, 12 d): 36.74 g | Paw withdraw threshold ([1]; 20 mg/kg ip once a day, 13 d): 33.02 g | Paw withdraw threshold ([1]; 20 mg/kg ip once a day, 14 d): 35.43 g | Paw withdraw threshold ([1]; 20 mg/kg ip once a day, 15 d): 36.52 g | Paw withdrawal threshold compared with the model group ([1]; 20 mg/kg): significant difference | Paw withdraw threshold ([1]; 40 mg/kg ip once a day, 2 d): 18.53 g | Paw withdraw threshold ([1]; 40 mg/kg ip once a day, 3 d): 24.94 g | Paw withdraw threshold ([1]; 40 mg/kg ip once a day, 4 d): 36.37 g | Paw withdraw threshold ([1]; 40 mg/kg ip once a day, 5 d): 42.83 g | Paw withdraw threshold ([1]; 40 mg/kg ip once a day, 6 d): 43.59 g | Paw withdraw threshold ([1]; 40 mg/kg ip once a day, 7 d): 45.85 g | Paw withdraw threshold ([1]; 40 mg/kg ip once a day, 8 d): 50.41 g | Paw withdraw threshold ([1]; 40 mg/kg ip once a day, 9 d): 46.49 g | Paw withdraw threshold ([1]; 40 mg/kg ip once a day, 10 d): 48.77 g | Paw withdraw threshold ([1]; 40 mg/kg ip once a day, 11 d): 44.59 g | Paw withdraw threshold ([1]; 40 mg/kg ip once a day, 12 d): 50.52 g | Paw withdraw threshold ([1]; 40 mg/kg ip once a day, 13 d): 43.72 g | Paw withdraw threshold ([1]; 40 mg/kg ip once a day, 14 d): 48.73 g | Paw withdraw threshold ([1]; 40 mg/kg ip once a day, 15 d): 46.51 g | Paw withdrawal threshold compared with the model group ([1]; 40 mg/kg): significant difference | Paw withdraw threshold ([1]; 80 mg/kg ip once a day, 2 d): 20.58 g | Paw withdraw threshold ([1]; 80 mg/kg ip once a day, 3 d): 18.59 g | Paw withdraw threshold ([1]; 80 mg/kg ip once a day, 4 d): 24.41 g | Paw withdraw threshold ([1]; 80 mg/kg ip once a day, 5 d): 24.39 g | Paw withdraw threshold ([1]; 80 mg/kg ip once a day, 6 d): 26.53 g | Paw withdraw threshold ([1]; 80 mg/kg ip once a day, 7 d): 26.07 g | Paw withdraw threshold ([1]; 80 mg/kg ip once a day, 8 d): 24.52 g | Paw withdraw threshold ([1]; 80 mg/kg ip once a day, 9 d): 26.11 g | Paw withdraw threshold ([1]; 80 mg/kg ip once a day, 10 d): 23.21 g | Paw withdraw threshold ([1]; 80 mg/kg ip once a day, 11 d): 25.42 g | Paw withdraw threshold ([1]; 80 mg/kg ip once a day, 12 d): 22.63 g | Paw withdraw threshold ([1]; 80 mg/kg ip once a day, 13 d): 25.79 g | Paw withdraw threshold ([1]; 80 mg/kg ip once a day, 14 d): 23.25 g | Paw withdraw threshold ([1]; 80 mg/kg ip once a day, 15 d): 24.83 g | Mechanical paw withdrawal threshold compared with the model group ([1]; 80 mg/kg, p>0.05): not statistically significant | Cytokines IL-6 content in serum ([2]; 20 mg/kg ip once a day): 84.09 ± 5.16 ng/L | Serum level of IL-6 compared with the model-negative group ([2]; 20 mg/kg, p<0.05): lower than those in the model-negative group | Cytokines IL-6 content in serum ([2]; 40 mg/kg ip once a day): 78.73 ± 6.39 ng/L | Serum level of IL-6 compared with the model-negative group ([2]; 40 mg/kg, p<0.05): lower than those in the model-negative group | Cytokines IL-6 content in serum ([2]; 80 mg/kg ip once a day): 98.82 ± 4.54 ng/L | Serum level of IL-6 compared with the model-negative group ([2]; 80 mg/kg): the difference was not significant

— US20250205186A1, “USE OF CHLOROGENIC ACID IN PREPARING MEDICINE OR PHARMACEUTICAL COMPOSITION FOR PREVENTING OR TREATING PAIN” (SICHUAN JIUZHANG BIOLOGICAL SCIENCE AND TECHNOLOGY CO., LTD., priority 2019, published 2025)
